Results reported in patent US20260043020A1, “BINDING MEMBERS WITH ALTERED DIVERSITY SCAFFOLD DOMAINS” (priority 2016, published 2026).

Target: T1, trypsin (Bos taurus, UniProt P00760)
T1 construct: gene PRSS1
T1 sequence (P00760 24-246): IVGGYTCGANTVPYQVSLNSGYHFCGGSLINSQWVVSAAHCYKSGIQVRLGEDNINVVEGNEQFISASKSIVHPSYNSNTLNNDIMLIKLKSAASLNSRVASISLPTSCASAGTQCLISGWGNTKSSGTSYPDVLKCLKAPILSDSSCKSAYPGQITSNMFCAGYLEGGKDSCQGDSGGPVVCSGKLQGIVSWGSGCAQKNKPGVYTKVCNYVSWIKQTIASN
Assay: Polyclonal phage TRF binding assay on trypsin
Details: phage display; direct gene-III fusion or round-2 polyclonal phage
Experimental: Phage display technology facilitates isolation of binders to any given target from large combinatorial repertoires based on proteins and peptides that can be presented on the surface of filamentous phage^105. In order to isolate functional knottin-antibody fusions from the KnotBody libraries multiple rounds of phage display selections on trypsin (cognate antigen for the EETI-II donor) were carried out. Phage particles were prepared by rescuing KnotBody libraries using trypsin cleavable helper phage^102,106Two rounds of phage display selections were performed on 10 μg/ml biotinylated trypsin immobilised on Streptavidin (for Round-1) or Neutravidin (for round-2) coated Maxisorp™ immunotubes (Thermo Scientific, Cat No. 444202). In both rounds of selection, phage libraries were pre-incubated with streptavidin coated paramagnetic beads (Thermo Fisher Scientific, Cat. No. 11205D). […] Polyclonal phage preparations from round-2 selection outputs were analysed for trypsin binding using a time resolved fluorescence (TRF) binding assay. In this assay, polyclonal phage binding to biotinylated trypsin immobilised on neutravidin (Thermo Fisher Scientific, Cat. No 31000) coated Maxisorp™ plates (Thermo Scientific, Cat. No. 437111) was detected using a mouse anti-M13 antibody (GE Healthcare, Cat. No. 27-9420-01) followed by europium conjugated anti-mouse antibody (Perkin Elmer, Cat. No. AD0124). […]

EETI-II
phage binding to trypsin: no detectable binding
